Results taken from US8927563B2, “Kinase inhibitor” (Respivert Limited, priority 2013, dated 2015).
Like-named read-outs stand apart in the source and are kept apart here.

Experiments:
[1] = molecular target: B-Raf (Homo sapiens (Human), UniProt P15056); test: KINOMEscan binding of B-Raf to standard ligand
Description: (§1) Kinase enzyme binding activities of compounds disclosed herein may be determined using a proprietary assay which measures active site-directed competition binding to an immobilized ligand (Fabian, M. A. et al., Nature Biotechnol., 2005, 23:329-336). These assays may be conducted by DiscoverX (formerly Ambit; San Diego, Calif.). The percentage inhibition produced by incubation with a test compound may be calculated relative to the non-inhibited control.

[2] = Plasma pharmacokinetics and total colon distribution after oral administration to mice; format: in vivo; details: male, C57BL/6, mouse, total colon, oral 5 mg/kg, vehicle B, read-out: Median total colon concentration
Description: (§2) Studies were conducted by Sai Life Sciences (Hinjewadi, Pune, India) to investigate the plasma pharmacokinetics and total colon tissue distribution of Compound I. In particular, pharmacokinetic studies were carried out in: • male C57BL/6 mice, following a single oral administration; and • male Wistar rats following a single intravenous or oral administration.

[3] = test system: TNBS-induced colitis; test: TNBS-induced colitis in mice; format: in vivo
Description: Non-fasted, 10-12 week old, male BDF1 mice are dosed by oral gavage twice daily with either vehicle (5 mL/kg), reference item (Budesonide 2.5 mg/kg) or test compound (1 or 5 mg/kg) one day before (Day −1) stimulation of the inflammatory response by treatment with 2,4,6-trinitrobenzenesulphonic acid (TNBS) (15 mg/mL in 50% ethanol/50% saline). On Day 0 of the study, TNBS (200 μL) is administered intra-colonically via a plastic catheter with BID dosing of the vehicle, reference or test compound continuing for 2 or 4 days. During the study, animals are weighed every day and stool observations are made and recorded as a score, based on stool consistency. At the time of sacrifice on Day 2 (or Day 4), the large intestine is removed and the length and weight recorded. Sections of the colon are taken for histopathology scoring to determine disease severity.

[4] = molecular target: p38 MAPKα (Homo sapiens (Human), UniProt Q16539); test: Phosphoflow assay, cellular p38 MAPKα inhibition in Jurkat cells; format: cell-based; details: H2O2 stimulated, read-out: IC50 Values, phospho-p38 MAPKα (converted)
Description: (§3) Jurkat T cells were cultured in starve medium (RPMI 1640+5% FBS) for 24 h prior to the experiment. Cells were harvested and resuspended at 10×10^6 cells/mL in starve medium and then plated into round-bottomed 96 well plates at 1×10^6 cells/well. Serial dilutions of test compound were added (1% final DMSO concentration) for 2 h prior to stimulation. Following pre-incubation with compound, cells were stimulated with H2O2 (0.05% final) for 5 min. The reaction was stopped by centrifugation at 2000 rpm (3 min, 4° C.), then the supernatant was removed and 100 μL of cold fix/perm solution (BD Fix/Perm kit #554714) added. Plates were incubated for 20 min at 4° C. before centrifugation and washing with supplied 1× wash medium (BD Fix/Perm kit #554714). Cells were stained for either phospho-p38α (T180/182), supplied by Cell Signalling Technology (9211s), or phospho-Lck (Y394), supplied by R&D (MAB7500). Antibodies were diluted to 5 μg/mL (R&D) or 1:200 (Cell Signalling Technology) in wash medium, before being incubated 1 h at 4° C. in the dark. Following 3 repeat washes with ice cold wash buffer, secondary antibody (anti-rabbit-FITC #F1362 or anti-mouse-FITC #F2883, both from Sigma) was added at a dilution of 1:1000 and incubated for 1 h at 4° C. in the dark. […] Cells were analysed by flow cytometry using BD Accuri C6.

[5] = Pharmacokinetics after oral administration to rats; format: in vivo; details: oral 5 mg/kg, vehicle B
Description: as §2

[6] = molecular target: CYP2C9 (Homo sapiens (Human), UniProt P11712); test: CYP2C9 inhibition with and without preincubation; format: in vitro ADME; details: for inhibition at 15 µM: human, read-out: 15 μM % Inh
Description: Assessment of certain in vitro ADME (absorption, distribution, metabolism, and excretion) parameters for Compound I was conducted by BioFocus (Saffron Walden, UK). The results reveal that Compound I is cleared rapidly by human hepatocytes and that it has a reduced liability for time-dependent cytochrome P450 inhibition.

[7] = test system: non-mutant kinases; test: KinomeScan selectivity scores; format: binding
Description: as §1

[8] = molecular target: Syk (Homo sapiens (Human), UniProt P43405); test: KINOMEscan dissociation constant, Syk; format: binding
Description: as §1

[9] = molecular target: c-Src (Homo sapiens (Human), UniProt P12931); test: c-Src enzyme inhibition, Z-LYTE FRET; format: biochemical
Description: The enzyme inhibitory activities of compounds disclosed herein are determined by FRET using synthetic peptides labelled with both donor and acceptor fluorophores (Z-LYTE, Invitrogen Ltd., Paisley, UK).
The inhibitory activities of the compound of the invention against c-Src and Syk enzymes (Invitrogen) are evaluated in a similar fashion to that described hereinabove. The relevant enzyme (3000 ng/mL or 2000 ng/mL respectively, 2.5 μL) is incubated with the test compound (either 1 μg/mL, 0.1 μg/mL, 0.01 μg/mL, or 0.001 μg/mL, 2.5 μL each) for 2 hr at RT. The FRET peptides (8 μM, 2.5 μL) and appropriate ATP solutions (2.5 μL, 800 μM for c-Src, and 60 μM ATP for Syk) are then added to the enzymes/compound mixtures and the mixture incubated for 1 hr. Development reagent (protease, 5 μL) is added for 1 hr prior to detection in a fluorescence microplate reader (Varioskan® Flash, ThermoFisher Scientific).
In all cases, the site-specific protease cleaves non-phosphorylated peptide only and eliminates the FRET signal. Phosphorylation levels of each reaction are calculated using the ratio of coumarin emission (donor) over fluorescein emission (acceptor), for which high ratios indicate high phosphorylation and low ratios indicate low phosphorylation levels.

[10] = molecular target: Lck (Homo sapiens (Human), UniProt P06239); test: Phosphoflow assay, cellular Lck inhibition in Jurkat cells; format: cell-based; details: H2O2 stimulated, read-out: IC50 Values, phospho-Lck (converted)
Description: as §3

[11] = 5 mg/kg orally BID, 2 days, SMEDDS vehicle

Chain of CYP2C9 (P11712 whole entry): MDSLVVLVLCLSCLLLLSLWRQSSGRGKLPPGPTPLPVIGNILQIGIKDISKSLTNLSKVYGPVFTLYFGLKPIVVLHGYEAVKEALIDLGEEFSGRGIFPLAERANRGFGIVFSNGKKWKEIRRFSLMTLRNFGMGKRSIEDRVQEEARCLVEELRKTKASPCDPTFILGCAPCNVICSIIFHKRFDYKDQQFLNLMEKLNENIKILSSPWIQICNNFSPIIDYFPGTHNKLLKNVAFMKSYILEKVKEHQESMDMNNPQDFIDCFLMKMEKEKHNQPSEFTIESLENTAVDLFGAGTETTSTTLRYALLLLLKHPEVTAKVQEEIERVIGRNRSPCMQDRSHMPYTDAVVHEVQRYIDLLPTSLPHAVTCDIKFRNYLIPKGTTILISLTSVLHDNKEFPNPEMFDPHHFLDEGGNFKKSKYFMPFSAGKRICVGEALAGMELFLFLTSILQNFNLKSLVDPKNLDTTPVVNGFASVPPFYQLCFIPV
Chain of Lck (P06239 whole entry): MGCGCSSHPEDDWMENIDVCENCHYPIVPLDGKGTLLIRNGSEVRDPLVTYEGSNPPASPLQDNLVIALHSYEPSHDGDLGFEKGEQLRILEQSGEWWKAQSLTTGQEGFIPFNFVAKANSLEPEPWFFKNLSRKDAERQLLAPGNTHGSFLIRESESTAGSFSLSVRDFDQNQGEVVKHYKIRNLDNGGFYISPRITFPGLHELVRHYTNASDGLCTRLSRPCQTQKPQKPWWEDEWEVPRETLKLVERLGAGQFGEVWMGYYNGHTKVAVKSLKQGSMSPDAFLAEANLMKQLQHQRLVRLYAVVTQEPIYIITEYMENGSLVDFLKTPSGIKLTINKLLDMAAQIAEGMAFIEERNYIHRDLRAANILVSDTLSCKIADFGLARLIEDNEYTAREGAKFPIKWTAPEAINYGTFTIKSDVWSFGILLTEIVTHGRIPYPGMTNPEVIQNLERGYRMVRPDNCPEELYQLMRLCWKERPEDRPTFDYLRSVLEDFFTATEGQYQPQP
Chain of p38 MAPKα (Q16539 whole entry, looked up): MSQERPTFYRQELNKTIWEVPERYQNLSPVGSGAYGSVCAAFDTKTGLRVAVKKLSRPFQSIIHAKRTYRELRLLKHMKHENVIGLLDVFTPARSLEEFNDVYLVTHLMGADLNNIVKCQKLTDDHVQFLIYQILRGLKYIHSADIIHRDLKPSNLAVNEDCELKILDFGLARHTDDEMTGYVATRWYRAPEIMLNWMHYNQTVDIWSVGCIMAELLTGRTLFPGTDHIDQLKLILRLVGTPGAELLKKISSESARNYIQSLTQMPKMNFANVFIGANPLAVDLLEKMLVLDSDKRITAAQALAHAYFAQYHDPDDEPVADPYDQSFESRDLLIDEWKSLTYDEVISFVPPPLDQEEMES
Chain of c-Src (P12931 whole entry, looked up): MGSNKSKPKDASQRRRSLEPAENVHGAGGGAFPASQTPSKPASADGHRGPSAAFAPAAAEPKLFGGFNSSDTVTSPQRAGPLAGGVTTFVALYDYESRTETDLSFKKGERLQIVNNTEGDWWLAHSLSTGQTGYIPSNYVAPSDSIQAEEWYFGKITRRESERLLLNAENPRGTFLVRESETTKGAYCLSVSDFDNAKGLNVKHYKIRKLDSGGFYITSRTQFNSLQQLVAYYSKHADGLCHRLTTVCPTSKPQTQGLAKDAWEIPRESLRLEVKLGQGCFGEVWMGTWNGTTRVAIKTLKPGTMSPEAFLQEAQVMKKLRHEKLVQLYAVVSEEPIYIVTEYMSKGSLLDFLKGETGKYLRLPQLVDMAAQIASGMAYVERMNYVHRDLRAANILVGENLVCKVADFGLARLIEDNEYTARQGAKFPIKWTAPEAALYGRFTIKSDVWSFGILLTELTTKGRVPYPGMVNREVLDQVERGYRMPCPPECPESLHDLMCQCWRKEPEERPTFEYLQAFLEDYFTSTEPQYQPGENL
Chain of B-Raf (P15056 whole entry): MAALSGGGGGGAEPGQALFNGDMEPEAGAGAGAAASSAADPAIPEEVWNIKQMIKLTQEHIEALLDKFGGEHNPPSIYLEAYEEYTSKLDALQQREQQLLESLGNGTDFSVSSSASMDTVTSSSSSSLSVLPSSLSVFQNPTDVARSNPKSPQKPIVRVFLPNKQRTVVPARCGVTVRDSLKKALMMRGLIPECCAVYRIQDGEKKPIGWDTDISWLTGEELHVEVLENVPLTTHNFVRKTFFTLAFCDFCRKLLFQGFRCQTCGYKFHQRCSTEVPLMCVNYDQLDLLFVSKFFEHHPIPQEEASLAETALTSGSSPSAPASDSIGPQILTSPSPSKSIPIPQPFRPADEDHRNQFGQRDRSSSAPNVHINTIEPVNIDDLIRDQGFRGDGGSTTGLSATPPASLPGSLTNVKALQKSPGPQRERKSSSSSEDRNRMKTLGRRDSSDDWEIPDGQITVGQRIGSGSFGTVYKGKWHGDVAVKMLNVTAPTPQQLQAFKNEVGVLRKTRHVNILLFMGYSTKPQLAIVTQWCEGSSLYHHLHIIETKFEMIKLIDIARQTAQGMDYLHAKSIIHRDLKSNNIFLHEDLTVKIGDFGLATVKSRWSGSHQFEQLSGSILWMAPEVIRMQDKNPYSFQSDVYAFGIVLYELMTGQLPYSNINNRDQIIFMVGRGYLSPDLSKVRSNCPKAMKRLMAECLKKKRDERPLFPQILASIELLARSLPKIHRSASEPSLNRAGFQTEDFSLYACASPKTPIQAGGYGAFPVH

C#Cc1cc(Nc2nccc(Oc3ccc(NC(=O)Nc4cc(C(C)(C)C)cc(NS(C)(=O)=O)c4OC)c4ccccc34)n2)cc(C(=O)NCCOCCOCCOC)c1 [Compound I, 3-((4-((4-(3-(5-(tert-Butyl)-2-methoxy-3-(methylsulfonamido)phenyl)ureido)naphthalen-1-yl)oxy)pyrimidin-2-yl)amino)-5-ethynyl-N-(2-(2-(2-methoxyethoxy)ethoxy)ethyl)benzamide]
effect on binding of B-Raf to its standard ligand [1]: did not have any significant effect | concentration at 1 h ([2]; 1 h): 0 ng/g | concentration at 2 h ([2]; 2 h): 10.4 ng/g | concentration at 4 h ([2]; 4 h): 420 ng/g | concentration at 6 h ([2]; 6 h): 3080 ng/g | concentration at 8 h ([2]; 8 h): 1950 ng/g | concentration at 12 h ([2]; 12 h): 126 ng/g | concentration at 24 h ([2]; 24 h): 23 ng/g | LP inflammation [3, 11]: 3.8 ± 0.4 | Ulcer grade [3, 11]: 3.6 ± 0.5 | inflammatory cell infiltrate in the reticular and laminar propria zones ([3]; dosed orally at 5 mg/kg): marked reduction | ulcer grade and epithelial repair compared to the vehicle control ([3]; dosed orally at 5 mg/kg): marked improvements | IC50 [4]: 23.8 nM | Fpo [5]: 0.0% | IC50 ([6]; CYP2C9, 0 min preincubation): > 15 µM | IC50 ([6]; CYP2C9, 30 min preincubation): > 15 µM | inhibition at 15 µM ([6]; CYP2C9, 0 min preincubation): 21% | inhibition at 15 µM ([6]; CYP2C9, 30 min preincubation): 37% | number of individual kinase hits, S(1) ([7]; 50 nM, % Ctrl <1): 0 | KinomeScan Selectivity Score S(10) ([7]; 50 nM, % Ctrl <10): 0.023 | number of individual kinase hits, S(10) ([7]; 50 nM, % Ctrl <10): 9 | KinomeScan Selectivity Score S(35) ([7]; 50 nM, % Ctrl <35): 0.068 | number of individual kinase hits, S(35) ([7]; 50 nM, % Ctrl <35): 27 | KinomeScan Selectivity Score S(1) ([7]; 500 nM, % Ctrl <1): 0.038 | number of individual kinase hits, S(1) ([7]; 500 nM, % Ctrl <1): 15 | number of individual kinase hits, S(10) ([7]; 500 nM, % Ctrl <10): 51 | number of individual kinase hits, S(35) ([7]; 500 nM, % Ctrl <35): 78 | Kd [8]: 21 nM | IC50 [9]: 24 nM | IC50 [10]: 7.14 nM
